The text below walks through data of patent US9890166B2, “Imidazopyrrolidine derivatives and their use in the treatment of disease” (NOVARTIS AG, priority 2013, dated 2018).

The test system of one test is MV-4-11 cells. Briefly: Cell growth inhibition assay (CellTiter-Glo), MV-4-11.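 For all read-outs here: cellular ATP luminescence after 4 days, 3-fold dilution series from 10 µM top dose, vehicle (0.1% DMSO) set to 100%, cell-free medium set to −100%, day 0 corrected.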 As to conditions: for GI50: Homo sapiens, MV4-11, read-out: MV-4-11 GI50; for MV-4-11 TGI: MV-4-11 cells, total growth inhibition, CellTiter-Glo.
The next test relates to K-562 cells. Description: Cell growth inhibition assay (CellTiter-Glo), K-562.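 For all read-outs here: cellular ATP measured by luminescence after 4 days of exposure, 3-fold dilution series from 10 µM, DMSO vehicle-treated cells define 100%, cell-free medium wells −100%.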 As to conditions: for GI50: Homo sapiens, K562, read-out: K-562 GI50; for K-562 TGI: K-562 cells, total growth inhibition, CellTiter-Glo.
In another test the test system is THP-1 cells. Briefly: Cell growth inhibition assay (CellTiter-Glo), THP-1.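 For all read-outs here: viability read as cellular ATP luminescence after 4 days, 3-fold dilution series from 10 µM, DMSO vehicle-treated cells taken as 100%, cell-free medium wells as −100%.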 As to conditions: for GI50: Homo sapiens, THP-1, read-out: THP-1 GI50; for THP-1 TGI: THP-1 cells, total growth inhibition, CellTiter-Glo.
Another test concerns the target BRD4 (His-Brd4(44-477)) (Homo sapiens (Human), UniProt O60885). Briefly: TR-FRET in-vitro binding assay for BRD4. As to conditions: single determination or n ≧ 2 independent determinations, read-out: Biochemical IC50 BRD4. As for the experimental part:
(§1) TR-FRET In-Vitro Binding Assays for BRD2, BRD3, and BRD4:
(§2) All assays were performed in 384 well microtiter plates. Each assay plate contained 8-point serial dilutions for 40 test compounds, plus 16 high- and 16 low controls. Liquid handling and incubation steps were done on an Innovadyne Nanodrop Express equipped with a robotic arm (Thermo CatX, Perkin Elmer/Caliper Twister II) and an incubator (Liconic STX40, Thermo Cytomat 2C450). The assay plates were prepared by addition of 50 nl per well of compound solution in 90% DMSO HummingBird nanodispenser (Zinsser Analytic). […] Reactions were incubated at 30° C. for 35 minutes. […] After 35 minutes incubation at 30° C., plates were measured in a Perkin Elmer EnVision multilabel reader.
(§3) Preparation of Compound Dilutions
(§4) Test compounds were dissolved in DMSO (10 mM) and transferred into 1.4 mL flat bottom or V-shaped Matrix tubes carrying a unique 2D matrix. The stock solutions were stored at […] if not used immediately. For the test procedure the vials were defrosted and identified by a scanner whereby a working sheet was generated that guided the subsequent working steps.
(§5) Compound dilutions were made in 96 well plates. This format enabled the assay of maximally 40 individual test compounds at 8 concentrations (single points) including 4 reference compounds, if desired (known BET inhibitors from the prior art, for this and other assays of the type disclosed herein). The dilution protocol included the production of “pre-dilution plates”, “master plates” and “assay plates”.
(§6) Pre-Dilution Plates: 96 polypropylene well plates were used as pre-dilution plates. A total of 4 pre-dilution plates were prepared including 10 test compounds each on the plate positions A1-A10, one standard compound at A11 and one DMSO control at A12. All dilution steps were done on a HamiltonSTAR robot.
(§7) These plates were used directly for the assay which was performed in a total volume of 13.55 μL.

The target in test [1] is CREBBP bromodomain (His-CREBBP(1081-1197)) (Homo sapiens (Human), UniProt Q92793). Briefly: AlphaScreen in-vitro binding assay for CREBBP. The settings on record: single determination or n ≧ 2 independent determinations, read-out: Biochemical IC50 CREBBP. As for the experimental part: AlphaScreen In-Vitro Binding Assay for CREBBP
CREBBP bromodomain (His-CREBBP(1081-1197)), sequence (Q92793 1081-1197): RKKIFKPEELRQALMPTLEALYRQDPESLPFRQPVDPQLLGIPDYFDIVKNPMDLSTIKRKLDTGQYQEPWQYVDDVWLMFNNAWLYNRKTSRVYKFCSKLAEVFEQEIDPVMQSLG
In order to assess bromodomain selectivity, we set up a binding assay using the bromodomain encoded by the CREBBP gene. […] Reactions were incubated at 30° C. for 35 minutes. Subsequently 4.5 μl per well detection mix (50 mM HEPES, pH 7.5, 0.005% Tween20, 0.02% BSA, 150 mM NaCl, 45 μg/ml Ni-chelate acceptor beads, 45 μg/mIstreptavidin-donor beads) (Perkin Elmer)) were added. After 60 minutes incubation at room temperature, plates were measured in a Perkin Elmer EnVision multilabel reader. IC50 values were determined from percent inhibition values at different compound concentrations by non-linear regression analysis.
as §3, §4, §5, §6, §7

Another test deals with BRD3 (His-Brd3(20-477)) (Homo sapiens (Human), UniProt Q15059). Briefly: TR-FRET in-vitro binding assay for BRD3. The settings on record: single determination or n ≧ 2 independent determinations, read-out: Biochemical IC50 BRD3. As to the method: as §1, §2, §3, §4, §5, §6, §7
BRD3 (His-Brd3(20-477)), sequence (Q15059 20-477): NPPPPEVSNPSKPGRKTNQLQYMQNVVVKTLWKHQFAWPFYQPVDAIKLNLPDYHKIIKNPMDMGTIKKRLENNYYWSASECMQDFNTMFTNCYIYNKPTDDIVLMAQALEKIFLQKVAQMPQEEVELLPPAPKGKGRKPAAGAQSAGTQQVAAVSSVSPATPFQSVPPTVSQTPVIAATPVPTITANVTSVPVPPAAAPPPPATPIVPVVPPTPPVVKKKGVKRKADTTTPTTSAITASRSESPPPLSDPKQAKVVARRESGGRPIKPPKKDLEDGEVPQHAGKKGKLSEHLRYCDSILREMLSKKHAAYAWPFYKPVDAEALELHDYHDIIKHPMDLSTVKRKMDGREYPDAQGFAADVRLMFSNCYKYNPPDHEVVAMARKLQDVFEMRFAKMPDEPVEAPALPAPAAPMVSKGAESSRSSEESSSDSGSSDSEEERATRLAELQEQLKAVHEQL

SMILES strings stand for the structures.

In the case of `Cc1nc2c([nH]1)C(c1ccc(Cl)cc1)N(c1cc(C)c3nnn(C)c3c1)C2=O` (centres unmarked) [Example 1, 6-(4-chlorophenyl)-5-(3,7-dimethyl-3H-benzo[d][1,2,3]triazol-5-yl)-2-methyl-5,6-dihydropyrrolo[3,4-d]imidazol-4(1H)-one], in the test on MV-4-11 cells, the concentration for 50% growth inhibition (GI50) was determined as 26.3 nM and the “MV-4-11 TGI” value amounted to 52.35 nM. In the test with K-562 cells, the GI50 came out at 160 nM and the “K-562 TGI” value is above 10000 nM. In addition, in the test with THP-1 cells, the GI50 is 38.4 nM and the “THP-1 TGI” value amounted to 79.9 nM.

With `Cc1cc(N2C(=O)c3nc(C4=CCOCC4)n(C4COC4)c3C2c2ccc(Cl)cc2)cc2c1nnn2C` (centres unmarked) [Example 93, 6-(4-chlorophenyl)-2-(3,6-dihydro-2H-pyran-4-yl)-5-(1,4-dimethyl-1H-benzo[d][1,2,3]triazol-6-yl)-1-(oxetan-3-yl)-5,6-dihydropyrrolo[3,4-d]imidazol-4(1H)-one], the figures for the concentration for 50% growth inhibition (GI50) with MV-4-11 cells, in the test on K-562 cells and in the test on THP-1 cells were 15.9 nM, 104 nM and 21.2 nM, respectively. In the test with MV-4-11 cells, the “MV-4-11 TGI” value was found to be 32 nM. In the test on K-562 cells, the “K-562 TGI” value is above 10000 nM. In the test on THP-1 cells, the “THP-1 TGI” value stood at 69.35 nM. Further, the results for the 50% inhibitory concentration (IC50) (at BRD4 (His-Brd4(44-477)); in test [1]; on BRD3 (His-Brd3(20-477))) were 21.5 nM, 2700 nM and 34 nM, respectively.

As for `Cc1cc(N2C(=O)c3nc(C)n(C4COC4)c3C2c2ccc(Cl)cc2)cc2c1nnn2C` (centres unmarked) [Example 94, 6-(4-chlorophenyl)-5-(1,4-dimethyl-1H-benzo[d][1,2,3]triazol-6-yl)-2-methyl-1-(oxetan-3-yl)-5,6-dihydropyrrolo[3,4-d]imidazol-4(1H)-one], the concentration for 50% growth inhibition (GI50) amounted to 40.6 nM in the test on MV-4-11 cells, 270 nM in the test with K-562 cells and 47.4 nM in the test with THP-1 cells. In the test on MV-4-11 cells, the “MV-4-11 TGI” value was 68.7 nM. In addition, the “K-562 TGI” value in the test with K-562 cells is above 10000 nM. Further, in the test on THP-1 cells, the “THP-1 TGI” value amounted to 94.35 nM. Also, the 50% inhibitory concentration (IC50) is 71.5 nM on BRD4 (His-Brd4(44-477)), 8050 nM in test [1] and 46 nM on BRD3 (His-Brd3(20-477)).

Consider `Cc1cc(N2C(=O)c3nc(C4CC4)n(C4COC4)c3C2c2ccc(Cl)cc2)cc2c1nnn2C` (centres unmarked) [Example 95, 6(4-chlorophenyl)-2-cyclopropyl-5-(1,4-dimethyl-1H-benzo[d][1,2,3]triazol-6-yl)-1-(oxetan-3-yl)-5,6-dihydropyrrolo[3,4-d]imidazol-4(1H)-one], for which the GI50 in the test with MV-4-11 cells was found to be 28 nM; in the test with K-562 cells, 85.7 nM; in the test with THP-1 cells, 17 nM. The “MV-4-11 TGI” value in the test with MV-4-11 cells was 42 nM. In addition, in the test on K-562 cells, the “K-562 TGI” value was above 10000 nM. Besides, the “THP-1 TGI” value with THP-1 cells was found to be 52.4 nM. The IC50 at BRD4 (His-Brd4(44-477)) was determined as 26.5 nM; in test [1], 1950 nM; at BRD3 (His-Brd3(20-477)), 29 nM.

Turning to `Cc1cc(N2C(=O)c3nc(C4=CCN(C)CC4)n(C4COC4)c3C2c2ccc(Cl)cc2)cc2c1nnn2C` (centres unmarked) [Example 96, 6-(4-chlorophenyl)-5-(1,4-dimethyl-1H-benzo[d][1,2,3]triazol-6-yl)-2-(1-methyl-1,2,3,6-tetrahydropyridin-4-yl)-1-(oxetan-3-yl)-5,6-dihydropyrrolo[3,4-d]imidazol-4(1H)-one], the values for the GI50 in the test with MV-4-11 cells, in the test with K-562 cells and in the test on THP-1 cells were 79.3 nM, 351 nM and 202 nM, respectively. The “MV-4-11 TGI” value in the test on MV-4-11 cells is 120.6 nM. Also, the “K-562 TGI” value with K-562 cells was above 10000 nM. Besides, the “THP-1 TGI” value in the test with THP-1 cells stood at 273.6 nM. The IC50 was determined as 39 nM on BRD4 (His-Brd4(44-477)), 3950 nM in test [1] and 33.5 nM on BRD3 (His-Brd3(20-477)).

Regarding `Cc1cc(N2C(=O)c3nc(C4CCOC4)n(C(C)C)c3C2c2ccc(Cl)cc2)cc2c1nnn2C` (centres unmarked) [Example 99, 6-(4-chlorophenyl)-5-(1,4-dimethyl-1H-benzo[d][1,2,3]triazol-6-yl)-1-isopropyl-2-(tetrahydrofuran-3-yl)-5,6-dihydropyrrolo[3,4-d]imidazol-4(1H)-one], the IC50 is 16 nM on BRD4 (His-Brd4(44-477)), 960 nM in test [1] and 18 nM on BRD3 (His-Brd3(20-477)).

On to `Cc1cc(N2C(=O)c3nc(C4CCOCC4)n(C4COC4)c3C2c2ccc(Cl)cc2)cc2c1nnn2C` (centres unmarked) [Example 105, 6-(4-chlorophenyl)-5-(1,4-dimethyl-1H-benzo[d][1,2,3]triazol-6-yl)-1-(oxetan-3-yl)-2-(tetrahydro-2H-pyran-4-yl)-5,6-dihydropyrrolo[3,4-d]imidazol-4(1H)-one], for which the figures for the concentration for 50% growth inhibition (GI50) in the test on MV-4-11 cells, in the test on K-562 cells and with THP-1 cells were 10.8 nM, 90.2 nM and 12.3 nM, respectively. Further, the “MV-4-11 TGI” value with MV-4-11 cells was 21.95 nM. Moreover, the “K-562 TGI” value in the test with K-562 cells is above 10000 nM. In addition, in the test on THP-1 cells, the “THP-1 TGI” value worked out at 27.85 nM. Also, the IC50 on BRD4 (His-Brd4(44-477)) is 13 nM; in test [1], 2000 nM; at BRD3 (His-Brd3(20-477)), 17 nM.

As to `COc1ccc(-c2nc3c([nH]2)C(c2ccc(Cl)cc2)N(c2cc(C)c4nnc(C)n4c2)C3=O)cn1` (centres unmarked) [Example 117, 6-(4-chlorophenyl)-5-(3,8-dimethyl-[1,2,4]triazolo[4,3-a]pyridin-6-yl)-2-(6-methoxypyridin-3-yl)-5,6-dihydropyrrolo[3,4-d]imidazol-4(1H)-one], in the test on MV-4-11 cells, the 50% growth inhibitory concentration (GI50) was found to be 69.5 nM and the “MV-4-11 TGI” value was found to be 112 nM. Besides, in the test with K-562 cells, the GI50 is 207 nM and the “K-562 TGI” value is above 10000 nM. Further, in the test on THP-1 cells, the GI50 is 81 nM and the “THP-1 TGI” value came out at 129 nM.

Regarding `COc1cc(F)ccc1-c1nc2c([nH]1)C(c1ccc(Cl)cc1)N(c1cc(C)c3nnc(C)n3c1)C2=O` (centres unmarked) [Example 137], in the test on MV-4-11 cells, the concentration for 50% growth inhibition (GI50) came out at 90.2 nM and the “MV-4-11 TGI” value was 124.5 nM. In the test on K-562 cells, the 50% growth inhibitory concentration (GI50) came out at 254 nM and the “K-562 TGI” value was above 10000 nM. Moreover, in the test on THP-1 cells, the 50% growth inhibitory concentration (GI50) was determined as 101 nM and the “THP-1 TGI” value was found to be 213 nM. For the same compound, on BRD4 (His-Brd4(44-477)), the half-inhibitory concentration (IC50) was determined as 84.5 nM. Moreover, the 50% inhibitory concentration (IC50) at BRD3 (His-Brd3(20-477)) came out at 89 nM.

As to `COc1ncccc1-c1nc2c(n1C(C)C)C(c1ccc(Cl)cc1)N(c1cc(C)c3nnn(C)c3n1)C2=O` (centres unmarked) [Example 157, 6-(4-chlorophenyl)-5-(3,7-dimethyl-3H-[1,2,3]triazolo[4,5-b]pyridin-5-yl)-1-isopropyl-2-(2-methoxypyridin-3-yl)-5,6-dihydropyrrolo[3,4-d]imidazol-4(1H)-one], in the test on MV-4-11 cells, the GI50 is 10.6 nM and the “MV-4-11 TGI” value came out at 15.15 nM. Besides, in the test on K-562 cells, the concentration for 50% growth inhibition (GI50) was found to be 56.8 nM and the “K-562 TGI” value is above 10000 nM. Moreover, in the test with THP-1 cells, the GI50 came out at 8.82 nM and the “THP-1 TGI” value turned out to be 24.75 nM.

For `Cc1cc(N2C(=O)c3nc(C4CCOC4)n(C(C)C)c3C2c2ccc(Cl)cc2)nn2c(C)nnc12` (centres unmarked) [Example 170, 6-(4-chlorophenyl)-5-(3,8-dimethyl-[1,2,4]triazolo[4,3-b]pyridazin-6-yl)-1-isopropyl-2-(tetrahydrofuran-3-yl)-5,6-dihydropyrrolo[3,4-d]imidazol-4(1H)-one], the values for the half-maximal inhibitory concentration (IC50) (at BRD4 (His-Brd4(44-477)); in test [1]; on BRD3 (His-Brd3(20-477))) were 31 nM, above 37000 nM and 43 nM, respectively.

Turning to `Cc1cc(N2C(=O)c3nc(C4CCOC4)n(C(C)C)c3[C@H]2c2ccc(Cl)cc2)nn2c(C)nnc12` (stereo partly drawn) [Example 171, (6R)-6-(4-chlorophenyl)-5-(3,8-dimethyl-[1,2,4]triazolo[4,3-b]pyridazin-6-yl)-1-isopropyl-2-(tetrahydrofuran-3-yl)-5,6-dihydropyrrolo[3,4-d]imidazol-4(1H)-one], the IC50 on BRD4 (His-Brd4(44-477)) is 12 nM; in test [1], 17800 nM; on BRD3 (His-Brd3(20-477)) it was below 11 nM.
